Measurements from patent US20170014354A1, “ZEAXANTHIN FOR TUMOR TREATMENT” (The New York Eye and Ear Infirmary, priority 2012, published 2017).

Columns and labels:
HeLa = experiment: MTT cell viability, HeLa cervix cancer; type: cell-based; settings: 48 h, vs control
Protocol: (§1) Each malignant tumor cell line was cultured in Dulbecco's modified Eagle's medium (DMEM, GIBCO, Carlsbad, Calif.) supplemented with 10% fetal bovine serum (FBS, GIBCO). Cells were incubated in a humidified 5% CO2 atmosphere at 37° C. After reaching confluence, cells were detached by trypsin-EDTA solution (GIBCO), diluted 1:4-1:6, plated for subculture and were passaged routinely at a dilution of 1:4-1:6 every 4-6 days.
(§2) All cell lines were tested in triplicates.

SP6.5 [1] = experiment: MTT cell viability, SP6.5 uveal melanoma; type: cell-based; settings: vs control; for Cell viability: 48 h, MTT; for reduction of cell viabilities: FIG. 1B
Protocol: as §1, §2

COLO829 = experiment: MTT cell viability, COLO829 cutaneous melanoma; type: cell-based; settings: 48 h, vs control
Protocol: as §1, §2

SCC1 = experiment: MTT cell viability, SCC1 cutaneous squamous carcinoma; type: cell-based; settings: 48 h, vs control
Protocol: as §1, §2

[2] = tested on: uveal melanoma cells (SP6.5); experiment: Annexin V-FITC staining apoptosis analysis; type: cell-based
Protocol: FIG. 3 illustrates the fluorescence photomicrograph of pro-apoptotic effects of zeaxanthin on uveal melanoma cells after annexin V-FTIC staining. Melanoma cells (SP6.5 cell line) were treated by zeaxanthin at a concentration of 100 μM for 24 hr, and the extent of apoptosis was determined by annexin V-FTIC staining. Cells were observed under fluorescence microscope using 492 nm and 530 nm filters for recognizing and detecting FITC.
In these tests, we measured the extent of apoptosis of cells treated with zeaxanthin by annexin V-FITC staining analysis. Specifically, uveal melanoma cells (SP6.5) were plated into 8-well plates at a density of 6×10^4 cells/well. After culturing for 24 hours, cells were treated with zeaxanthin at final concentration of 10, 30, and 100 μM for another 24 hours in a CO2 incubator at 37C. Then the culture medium was aspirated and the cells were washed with the binding buffer in preparation for annexin V-FITC staining analysis. FITC-annexin V was added into each well and the cells were stained for 15 min in the dark, followed by washing with the binding buffer. The cells were then observed under fluorescence microscope using 492 nm and 530 nm filters that facilitate FITC fluorescence detection to measure the extent of apoptosis based on the principle that cell membranes of apoptotic cells were stained bright green in color.

T-47D = experiment: MTT cell viability, T-47D breast cancer; type: cell-based; settings: 48 h, vs control
Protocol: as §1, §2

MDA = experiment: MTT cell viability, MDA breast cancer; type: cell-based; settings: for Cell viability: 48 h, MTT, vs control
Protocol: as §1, §2

DU-145 = experiment: MTT cell viability, DU-145 prostate cancer; type: cell-based; settings: 48 h, vs control
Protocol: as §1, §2

M17 = experiment: MTT cell viability, M17 uveal melanoma; type: cell-based, human; settings: 48 h, vs control
Protocol: as §1, §2

LoVo = experiment: MTT cell viability, LoVo colon cancer; type: cell-based; settings: 48 h, vs control
Protocol: as §1, §2

SP6.5 [3] = experiment: Phase-contrast microscopy of treated uveal melanoma cells; type: cell-based; settings: SP6.5, 0, 30 and 100 μM zeaxanthin, 48 hr, 24-well plates
Protocol: FIGS. 2A, 2B and 2C illustrate the phase-contrast photomicrographs of uveal melanoma cells which have been treated with three different concentrations of zeaxanthin. Uveal melanoma cells (SP6.5 cell line) were seeded into 24-well plates and treated with zeaxanthin at 0 μM (2A), 30 μM (2B), and 100 μM (2C) levels for 48 hr.
Viability of cells treated with zeaxanthin was also visualized in the following tests. In these tests, the same amount of uveal melanoma cells were cultured and treated with zeaxanthin at different concentrations, and the treated cells were examined under microscope. Specifically, the uveal melanoma cell line SP6.5 was seeded into 24-well plates and treated with zeaxanthin at final concentrations of 0 μM, 30 μM, and 100 μM for 48 hr. […] The number of cells alive in FIG. 2A is more than that in FIG. 2B, which in turn is more than that in FIG. 2C.

NCI-H820 = experiment: MTT cell viability, NCI-H820 lung cancer; type: cell-based; settings: 48 h, vs control
Protocol: as §1, §2

OCM2 = experiment: MTT cell viability, OCM2 uveal melanoma; type: cell-based; settings: 48 h, vs control
Protocol: as §1, §2

HCT116 = experiment: MTT cell viability, HCT116 colon cancer; type: cell-based; settings: 48 h, vs control
Protocol: as §1, §2

NCI-H1755 = experiment: MTT cell viability, NCI-H1755 lung cancer; type: cell-based; settings: for Cell viability: 48 h, MTT, vs control
Protocol: as §1, §2

MCF-7 = experiment: MTT cell viability, MCF-7 breast cancer; type: cell-based; settings: for Cell viability: 48 h, MTT, vs control
Protocol: as §1, §2

A375 = experiment: MTT cell viability, A375 cutaneous melanoma; type: cell-based; settings: 48 h, vs control
Protocol: as §1, §2

HCT-15 = experiment: MTT cell viability, HCT-15 colon cancer; type: cell-based; settings: 48 h, vs control
Protocol: as §1, §2

Work on `CC1=C(/C=C/C(C)=C/C=C/C(C)=C/C=C/C=C(C)/C=C/C=C(C)/C=C/C2=C(C)C[C@@H](O)CC2(C)C)C(C)(C)C[C@H](O)C1` [zeaxanthin] yielded a Cell viability (HeLa; 10 μM zeaxanthin) of 66 ± 3.3%, a Cell viability (HeLa; 30 μM zeaxanthin) of 46 ± 1.6% and a Cell viability (HeLa; 100 μM zeaxanthin) of 7.9 ± 2.0%. The Cell viability (SP6.5 [1]; SP6.5, 10 μM zeaxanthin) was 86 ± 4.3%, the “reduction of cell viabilities” value (SP6.5 [1]; SP6.5, 10 μM zeaxanthin) was “about 14%” and the Cell viability (SP6.5 [1]; SP6.5, 30 μM zeaxanthin) was 64 ± 1.7%. The “reduction of cell viabilities” value (SP6.5 [1]; SP6.5, 30 μM zeaxanthin) was ~36%, the Cell viability (SP6.5 [1]; SP6.5, 100 μM zeaxanthin) was 42 ± 2.2% and the “reduction of cell viabilities” value (SP6.5 [1]; SP6.5, 100 μM zeaxanthin) was ~58%. The Cell viability (COLO829; COLO829, 10 μM zeaxanthin) was 73 ± 4.6%, the Cell viability (COLO829; COLO829, 30 μM zeaxanthin) was 52 ± 2.0% and the Cell viability (COLO829; COLO829, 100 μM zeaxanthin) was 28 ± 1.2%. The Cell viability (SCC1; SCC1, 10 μM zeaxanthin) was 80 ± 3.5%, the Cell viability (SCC1; SCC1, 30 μM zeaxanthin) was 65 ± 2.9% and the Cell viability (SCC1; SCC1, 100 μM zeaxanthin) was 13 ± 1.4%. The “annexin V staining of the cell membrane (apoptotic cells)” value ([2]; SP6.5, 100 μM zeaxanthin, 24 hr, FIG. 3) was “numerous cells showed staining of the cell membrane with annexin V”, the “extent of apoptosis (annexin V-FITC staining)” value ([2]; SP6.5, 10, 30 and 100 μM zeaxanthin, 24 hours) was “apoptosis in uveal melanoma cells induced by zeaxanthin in a dose-dependent manner” and the Cell viability (T-47D; 10 μM zeaxanthin) was 83 ± 4.2%. It also gave a Cell viability (T-47D; 30 μM zeaxanthin) of 57 ± 3.5%, a Cell viability (T-47D; 100 μM zeaxanthin) of 31 ± 1.4% and a Cell viability (MDA; 10 μM zeaxanthin) of 97 ± 6.36%. The Cell viability (MDA; 30 μM zeaxanthin) was 95 ± 5.1%, the Cell viability (MDA; 100 μM zeaxanthin) was 92 ± 9.2% and the “decrease of cell viability after zeaxanthin treatment” value (MDA; final concentration as high as 100 μM) was “did not see statistically significant decrease of cell viability”. For the same molecule, the Cell viability (DU-145; DU-145, 10 μM zeaxanthin) was 78 ± 5.0%, the Cell viability (DU-145; DU-145, 30 μM zeaxanthin) was 65 ± 5.5% and the Cell viability (M17; M17, 10 μM zeaxanthin) was 84 ± 3.9%. The Cell viability (M17; M17, 30 μM zeaxanthin) was 69 ± 2.5%, the Cell viability (M17; M17, 100 μM zeaxanthin) was 41 ± 1.0% and the Cell viability (LoVo; 10 μM zeaxanthin) was 76 ± 3.8%. The Cell viability (LoVo; 30 μM zeaxanthin) was 51 ± 2.5%, the Cell viability (LoVo; 100 μM zeaxanthin) was 32 ± 1.6% and the “number of cells seen under microscope” value (SP6.5 [3]) was “the number of cells in the culture that could be seen under microscope decreased progressively”. The Cell viability (NCI-H820; NCI-H820, 10 μM zeaxanthin) was 76 ± 4.5%, the Cell viability (NCI-H820; NCI-H820, 30 μM zeaxanthin) was 68 ± 3.1% and the Cell viability (NCI-H820; NCI-H820, 100 μM zeaxanthin) was 38 ± 1.7%. The Cell viability (OCM2; OCM2, 10 μM zeaxanthin) was 90 ± 4.9%, the Cell viability (OCM2; OCM2, 30 μM zeaxanthin) was 70 ± 2.1% and the Cell viability (OCM2; OCM2, 100 μM zeaxanthin) was 46 ± 2.0%. The Cell viability (HCT116; HCT116, 10 μM zeaxanthin) was 67 ± 3.7%, the Cell viability (HCT116; HCT116, 30 μM zeaxanthin) was 56 ± 2.3% and the Cell viability (HCT116; HCT116, 100 μM zeaxanthin) was 16 ± 1.4%. It also gave a Cell viability (NCI-H1755; NCI-H1755, 10 μM zeaxanthin) of 86 ± 6.7%, a Cell viability (NCI-H1755; NCI-H1755, 30 μM zeaxanthin) of 81 ± 4.5% and a Cell viability (NCI-H1755; NCI-H1755, 100 μM zeaxanthin) of 81 ± 90%. For the same molecule, the “final concentration at which cell viability decreased significantly” value (NCI-H1755; NCI-H1755, vs cells without zeaxanthin) was ≥ 30 µM, the Cell viability (MCF-7; MCF-7, 10 μM zeaxanthin) was 86 ± 4.0% and the Cell viability (MCF-7; MCF-7, 30 μM zeaxanthin) was 73 ± 8.3%. For the same molecule, the Cell viability (MCF-7; MCF-7, 100 μM zeaxanthin) was 52 ± 2.4%, the “final concentration at which cell viability decreased significantly” value (MCF-7; MCF-7, vs cells without zeaxanthin) was ≥ 30 µM and the Cell viability (A375; A375, 10 μM zeaxanthin) was 62 ± 2.7%. It also gave a Cell viability (A375; A375, 30 μM zeaxanthin) of 41 ± 2.7%, a Cell viability (A375; A375, 100 μM zeaxanthin) of 6% and a Cell viability (HCT-15; HCT-15, 10 μM zeaxanthin) of 62 ± 3.4%. It also gave a Cell viability (HCT-15; HCT-15, 30 μM zeaxanthin) of 46 ± 2.4% and a Cell viability (HCT-15; HCT-15, 100 μM zeaxanthin) of 12 ± 1.3%.
